Assay results from US8877748B2, “Heterocyclic fused anthraquinone derivatives, manufacturing method and pharmaceutical composition using thereof” (National Defense Medical Center, priority 2012, dated 2014).

Tests used:
[1] = test system: KM12; experiment: NCI one-dose screening, colon cancer KM12; assay type: cell-based, human; settings: 10 μM
[2] = test system: T-47D; experiment: NCI one-dose screening, breast cancer T-47D; assay type: cell-based, human; settings: 10 μM
[3] = test system: NCl/ADR-RES; experiment: NCI one-dose screening, breast cancer NCl/ADR-RES; assay type: cell-based, human; settings: 10 μM; listed under Ovarian cancer
[4] = test system: UACC-257; experiment: NCI one-dose screening, melanoma UACC-257; assay type: cell-based, human; settings: 10 μM
[5] = test system: SN12C; experiment: NCI one-dose screening, renal cancer SN12C; assay type: cell-based, human; settings: 10 μM
[6] = test system: MDA, -MB-435; experiment: NCI one-dose screening, breast cancer MDA, -MB-435; assay type: cell-based, human; settings: 10 μM; listed under Melanoma
[7] = test system: SF-539; experiment: NCI one-dose screening, CNS cancer SF-539; assay type: cell-based, human; settings: 10 μM
[8] = test system: 786-O; experiment: NCI one-dose screening, renal cancer 786-O; assay type: cell-based, human; settings: 10 μM
[9] = test system: PC-3; experiment: NCI one-dose screening, prostate cancer PC-3; assay type: cell-based, human; settings: 10 μM
[10] = test system: M14; experiment: NCI one-dose screening, melanoma M14; assay type: cell-based, human; settings: 10 μM
[11] = test system: HCT-15; experiment: NCI one-dose screening, colon cancer HCT-15; assay type: cell-based, human; settings: 10 μM
[12] = test system: PRMI-8226 cell line; experiment: NCI one-dose screening, leukemia PRMI-8226; assay type: cell-based, human; settings: 10 μM
[13] = test system: SR; experiment: NCI one-dose screening, leukemia SR; assay type: cell-based, human; settings: 10 μM
[14] = test system: HT29; experiment: NCI one-dose screening, colon cancer HT29; assay type: cell-based, human; settings: 10 μM
[15] = test system: HOP-92; experiment: NCI one-dose screening, non-small cell lung cancer HOP-92; assay type: cell-based, human; settings: 10 μM
[16] = test system: SK-MEL-5; experiment: NCI one-dose screening, melanoma SK-MEL-5; assay type: cell-based, human; settings: 10 μM
[17] = test system: SK-MEL-28; experiment: NCI one-dose screening, melanoma SK-MEL-28; assay type: cell-based, human; settings: 10 μM
[18] = test system: NCI-H460; experiment: NCI one-dose screening, non-small cell lung cancer NCI-H460; assay type: cell-based, human; settings: 10 μM
[19] = test system: UACC-62; experiment: NCI one-dose screening, melanoma UACC-62; assay type: cell-based, human; settings: 10 μM
[20] = test system: K562cell line; experiment: NCI one-dose screening, leukemia K562; assay type: cell-based, human; settings: 10 μM
[21] = test system: OVCAR-8; experiment: NCI one-dose screening, ovarian cancer OVCAR-8; assay type: cell-based, human; settings: 10 μM
[22] = test system: EKVX; experiment: NCI one-dose screening, non-small cell lung cancer EKVX; assay type: cell-based, human; settings: 10 μM
[23] = test system: DU145; experiment: NCI one-dose screening, prostate cancer DU145; assay type: cell-based, human; settings: 10 μM
[24] = test system: SNB-19; experiment: NCI one-dose screening, CNS cancer SNB-19; assay type: cell-based, human; settings: 10 μM
[25] = test system: NCI-H23; experiment: NCI one-dose screening, non-small cell lung cancer NCI-H23; assay type: cell-based, human; settings: 10 μM
[26] = NCI one-dose screening, renal cancer A489; assay type: cell-based, human; settings: 10 μM
[27] = test system: HOP-62; experiment: NCI one-dose screening, non-small cell lung cancer HOP-62; assay type: cell-based, human; settings: 10 μM
[28] = test system: COLO 205; experiment: NCI one-dose screening, colon cancer COLO 205; assay type: cell-based, human; settings: 10 μM
[29] = test system: BT-549; experiment: NCI one-dose screening, breast cancer BT-549; assay type: cell-based, human; settings: 10 μM
[30] = test system: A549/ATCC; experiment: NCI one-dose screening, non-small cell lung cancer A549/ATCC; assay type: cell-based, human; settings: 10 μM
[31] = test system: IGROV1; experiment: NCI one-dose screening, ovarian cancer IGROV1; assay type: cell-based, human; settings: 10 μM
[32] = test system: SF-268; experiment: NCI one-dose screening, CNS cancer SF-268; assay type: cell-based, human; settings: 10 μM
[33] = test system: PC-3 prostate cancer cell line; experiment: SRB assay cell viability, PC-3 prostate cancer cell line; assay type: cell-based, human; settings: Homo sapiens, PC-3 prostate cancer cell line, Table II prints no unit, μM printed, read-out: SRB assay: 50% inhibition of cancer cell proliferation of sample concentration (IC50) of PC-3 prostate cancer cell line
[34] = test system: SK-MEL-2; experiment: NCI one-dose screening, melanoma SK-MEL-2; assay type: cell-based, human; settings: 10 μM
[35] = test system: human tumor cell lines; experiment: NCI one-dose screening, Mean / Delta / Range of growth percent over all tested cell lines; assay type: cell-based; settings: 10 μM
[36] = test system: NCI-H226; experiment: NCI one-dose screening, non-small cell lung cancer NCI-H226; assay type: cell-based, human; settings: 10 μM
[37] = test system: OVCAR-3; experiment: NCI one-dose screening, ovarian cancer OVCAR-3; assay type: cell-based, human; settings: 10 μM
[38] = test system: MALME-3M; experiment: NCI one-dose screening, melanoma MALME-3M; assay type: cell-based, human; settings: 10 μM
[39] = test system: ACHN; experiment: NCI one-dose screening, renal cancer ACHN; assay type: cell-based, human; settings: 10 μM
[40] = test system: NCI-H522; experiment: NCI one-dose screening, non-small cell lung cancer NCI-H522; assay type: cell-based, human; settings: 10 μM
[41] = test system: RXF, 393; experiment: NCI one-dose screening, renal cancer RXF, 393; assay type: cell-based, human; settings: 10 μM
[42] = test system: UO-31; experiment: NCI one-dose screening, renal cancer UO-31; assay type: cell-based, human; settings: 10 μM
[43] = test system: HCC-2998; experiment: NCI one-dose screening, colon cancer HCC-2998; assay type: cell-based, human; settings: 10 μM
[44] = test system: OVCAR-5; experiment: NCI one-dose screening, ovarian cancer OVCAR-5; assay type: cell-based, human; settings: 10 μM
[45] = test system: SK-OV-3; experiment: NCI one-dose screening, ovarian cancer SK-OV-3; assay type: cell-based, human; settings: 10 μM
[46] = test system: HL-60, TB; experiment: NCI one-dose screening, leukemia HL-60, TB; assay type: cell-based, human; settings: 10 μM
[47] = test system: LOX IMVI; experiment: NCI one-dose screening, melanoma LOX IMVI; assay type: cell-based, human; settings: 10 μM
[48] = test system: MDA-MB-468; experiment: NCI one-dose screening, breast cancer MDA-MB-468; assay type: cell-based, human; settings: 10 μM
[49] = test system: TK-10; experiment: NCI one-dose screening, renal cancer TK-10; assay type: cell-based, human; settings: 10 μM
[50] = test system: U251; experiment: NCI one-dose screening, CNS cancer U251; assay type: cell-based, human; settings: 10 μM
[51] = test system: HS 578-T; experiment: NCI one-dose screening, breast cancer HS 578-T; assay type: cell-based, human; settings: 10 μM; Breast cancer
[52] = test system: HCT-116; experiment: NCI one-dose screening, colon cancer HCT-116; assay type: cell-based, human; settings: 10 μM
[53] = test system: MOLT-4; experiment: NCI one-dose screening, leukemia MOLT-4; assay type: cell-based, human; settings: 10 μM
[54] = test system: MDA-MB-231/ATCC; experiment: NCI one-dose screening, breast cancer MDA-MB-231/ATCC; assay type: cell-based, human; settings: 10 μM
[55] = test system: SF-295; experiment: NCI one-dose screening, CNS cancer SF-295; assay type: cell-based, human; settings: 10 μM
[56] = test system: CAKI-1; experiment: NCI one-dose screening, renal cancer CAKI-1; assay type: cell-based, human; settings: 10 μM
[57] = test system: MCF7; experiment: NCI one-dose screening, breast cancer MCF7; assay type: cell-based, human; settings: 10 μM
[58] = test system: SNB-75; experiment: NCI one-dose screening, CNS cancer SNB-75; assay type: cell-based, human; settings: 10 μM

CSc1ccc(Sc2cc3c(c4nsnc24)C(=O)c2ccccc2C3=O)cc1 [C43, 4-(4-(methylthio)phenylthio)anthra[2,1-c] [1,2,5]thiadiazol-6,11-dione]
Growth Percent KM12 [1]: 100.42%
Growth Percent T-47D [2]: 86.56%
Growth Percent NCI/ADR-RES [3]: 91.79%
Growth Percent UACC-257 [4]: 109.51%
Growth Percent SN12C [5]: 98.04%
Growth Percent MDA-MB-435 [6]: 118.40%
Growth Percent SF-539 [7]: 96.48%
Growth Percent 786-0 [8]: 109.83%
Growth Percent PC-3 [9]: 78.37%
Growth Percent M14 [10]: 107.55%
Growth Percent HCT-15 [11]: 111.56%
Growth Percent RPMI-8226 [12]: 88.58%
Growth Percent SR [13]: 96.31%
Growth Percent HT29 [14]: 102.26%
Growth Percent HOP-92 [15]: 04.31%
Growth Percent SK-MEL-5 [16]: 101.45%
Growth Percent SK-MEL-28 [17]: 119.66%
Growth Percent NCI-H460 [18]: 106.20%
Growth Percent UACC-62 [19]: 110.99%
Growth Percent K562 [20]: 67.50%
Growth Percent OVCAR-8 [21]: 97.37%
Growth Percent EKVX [22]: 113.82%
Growth Percent DU145 [23]: 101.05%
Growth Percent SNB-19 [24]: 101.61%
Growth Percent NCI-H23 [25]: 81.49%
Growth Percent A498 [26]: 56.04%
Growth Percent HOP-62 [27]: 102.09%
Growth Percent COLO 205 [28]: 117.30%
Growth Percent BT-549 [29]: 107.82%
Growth Percent A549/ATCC [30]: 104.69%
Growth Percent IGROV1 [31]: 95.67%
Growth Percent SF-268 [32]: 89.67%
IC50 [33]: > 15 µM
Growth Percent SK-MEL-2 [34]: 89.27%
Growth Percent Delta ([35]; delta over all cell lines): 40.76%
Growth Percent Mean ([35]; mean over all cell lines): 96.80%
Growth Percent Range ([35]; range over all cell lines): 72.06%
Growth Percent NCI-H226 [36]: 79.69%
Growth Percent OVCAR-3 [37]: 102.89%
Growth Percent MALME-3M [38]: 104.58%
Growth Percent ACHN [39]: 103.64%
Growth Percent NCI-H522 [40]: 95.39%
Growth Percent RXF 393 [41]: 106.98%
Growth Percent UO-31 [42]: 67.56%
Growth Percent HCC-2998 [43]: 111.01%
Growth Percent OVCAR-5 [44]: 108.31%
Growth Percent SK-OV-3 [45]: 102.46%
Growth Percent HL-60(TB) [46]: 105.25%
Growth Percent LOX IMVI [47]: 68.98%
Growth Percent MDA-MB-468 [48]: 82.25%
Growth Percent TK-10 [49]: 128.10%
Growth Percent U251 [50]: 103.89%
Growth Percent HS 578T [51]: 96.47%
Growth Percent HCT-116 [52]: 101.97%
Growth Percent MOLT-4 [53]: 59.93%
Growth Percent MDA-MB-231/ATCC [54]: 78.80%
Growth Percent SF-295 [55]: 98.897%
Growth Percent CAKI-1 [56]: 99.44%
Growth Percent MCF7 [57]: 82.87%
Growth Percent SNB-75 [58]: 75.08%
